# According to article PMC12152147, “DDB1 engagement defines the selectivity of S656 analogs for cyclin K degradation over CDK inhibition” (EMBO Reports, 2025):
# Where two headings read alike, the source gives them in different places.
# What was measured:
# [1] = system: cyclin KeGFP; assay: Cyclin KeGFP reporter system (eGFP/mCherry MFI by flow cytometry);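 as to % degradation cyclin K-eGFP: 10 μM compound for 3 h relative to DMSO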; format: cell-based, H. sapiens; settings: for % degradation cyclin K-eGFP: cyclin K-eGFP reporter
# Description: We used the cyclin KeGFP reporter system previously described (Słabicki et al, [2020]). Lentiviral vector (Addgene plasmid #169930) was used to infect OCI-AML5 at a MOI of 5 and were selected with puromycin. Cells were seeded in methylcellulose and let grown as colonies for 10 days. Colonies were isolated, expanded and selected based on cyclin KeGFP fluorescence in presence and absence of cyclin K degrader molecules. Selected G7 clone was used for all reported experiments. Fluorescent signal of cyclin KeGFP and mCherry were quantified by flow cytometry (BD LSRII) in each condition and the geometric mean fluorescence intensity (MFI) were calculated using FlowJo (BD Biosciences). The ratio of eGFP to mCherry was normalized to DMSO-treated cells.
# [2] = target: T1, CDK9/CyclinT (Homo sapiens, UniProt P50750); assay: CDK9/CyclinT in vitro kinase activity, single concentration 1 μM; format: biochemical; settings: single concentration 1 μM
# T1 construct: purchased BPS Bioscience 79628
# Description: Kinase activity was assessed using the kinase assay kits from BPS Bioscience for CDK1, CDK9 and CDK12 with Kinase Glo MAX in duplicates. Compounds were tested at a single concentration of 1 μM for CDK1 and CDK9 activity, and in a dilution ranging from 0.64 nM to 50 μM for CDK12 activity. Chemiluminescence was read using the Neo Synergy BioTek plate reader.
# [3] = system: OCI-AML5 cells expressing shRNAs targeting CDK1, 2, 4, 7, 9, cyclin K; assay: Dose response in OCI-AML5 expressing shRNAs targeting CDK1, 2, 4, 7, 9, cyclin K or control; format: cell-based, H. sapiens; settings: for Class: class from shRNA IC50 profile and cyclin K-eGFP degradation
# [4] = system: OCI-AML5 cells; assay: Dose-response proliferative assay in OCI-AML5 (4 days, CellTiterGlo); format: cell-based, H. sapiens; settings: Homo sapiens
# Description: Cell lines were purchased from the ATCC or donated from collaborators. OCI-AML5 cell line was cultured in αMEM, 10% heat-inactivated FBS supplemented with 10 ng/mL GM-CSF, OCI-AML1, U2OS and HEK293T cell lines in DMEM, 10% heat-inactivated FBS. Cells were maintained at 37 °C in 5% CO2 atmosphere.
# Dose-response assays in primary AML specimens were performed as in chemical screen (see above) with the exception that compounds were tested in serial dilution (8 dilutions, 1:4, 10 μM down to 0.5 nM). Dose-response assays in OCI-AML5 cell line were conducted similarly with the following modifications: 300 cells per well were seeded in 50 μL of cell line media and cell viability was evaluated after 4 days in culture.
# [5] = system: OCI-AML5 cells expressing shRNA targeting CUL4A or CUL4B; assay: Dose response in OCI-AML5 expressing shRNAs targeting CUL4A, CUL4B or control; format: cell-based, H. sapiens; settings: ratio of IC50 in shCUL4A vs shCTRL OCI-AML5 cells
# [6] = OCI-AML5 expressing shRNA CCNK (cyclin K), read-out: IC50 shRNA CCNK
# [7] = OCI-AML5 expressing shRNA CDK1, read-out: IC50 shRNA CDK1
# [8] = OCI-AML5 expressing shRNA CDK2, read-out: IC50 shRNA CDK2
# [9] = OCI-AML5 expressing shRNA CDK4, read-out: IC50 shRNA CDK4
# [10] = OCI-AML5 expressing shRNA CDK7, read-out: IC50 shRNA CDK7
# [11] = OCI-AML5 expressing shRNA CDK9, read-out: IC50 shRNA CDK9
# [12] = OCI-AML-5, OCI-AML5 cells, read-out: IC50 in AML5
# [13] = Homo sapiens, OCI-AML-5, OCI-AML5 expressing shRNA CCNK (cyclin K), read-out: IC50 shRNA CCNK
# [14] = Homo sapiens, OCI-AML-5, OCI-AML5 expressing shRNA CDK1, read-out: IC50 shRNA CDK1
# [15] = Homo sapiens, OCI-AML-5, OCI-AML5 expressing shRNA CDK2, read-out: IC50 shRNA CDK2
# [16] = Homo sapiens, OCI-AML-5, OCI-AML5 expressing shRNA CDK4, read-out: IC50 shRNA CDK4
# [17] = Homo sapiens, OCI-AML-5, OCI-AML5 expressing shRNA CDK7, read-out: IC50 shRNA CDK7
# [18] = Homo sapiens, OCI-AML-5, OCI-AML5 expressing shRNA CDK9, read-out: IC50 shRNA CDK9
# T1 sequence (P50750 whole entry): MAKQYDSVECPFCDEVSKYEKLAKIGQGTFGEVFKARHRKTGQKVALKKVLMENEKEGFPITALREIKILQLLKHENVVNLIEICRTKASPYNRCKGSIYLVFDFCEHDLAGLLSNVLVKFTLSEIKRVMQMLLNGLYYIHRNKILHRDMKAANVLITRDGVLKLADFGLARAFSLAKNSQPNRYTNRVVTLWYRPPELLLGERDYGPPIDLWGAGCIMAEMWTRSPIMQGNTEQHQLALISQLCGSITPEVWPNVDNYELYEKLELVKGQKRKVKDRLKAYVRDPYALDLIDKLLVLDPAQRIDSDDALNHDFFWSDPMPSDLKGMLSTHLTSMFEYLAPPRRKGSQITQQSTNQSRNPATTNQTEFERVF
# T1 sequence (O60563 whole entry partner): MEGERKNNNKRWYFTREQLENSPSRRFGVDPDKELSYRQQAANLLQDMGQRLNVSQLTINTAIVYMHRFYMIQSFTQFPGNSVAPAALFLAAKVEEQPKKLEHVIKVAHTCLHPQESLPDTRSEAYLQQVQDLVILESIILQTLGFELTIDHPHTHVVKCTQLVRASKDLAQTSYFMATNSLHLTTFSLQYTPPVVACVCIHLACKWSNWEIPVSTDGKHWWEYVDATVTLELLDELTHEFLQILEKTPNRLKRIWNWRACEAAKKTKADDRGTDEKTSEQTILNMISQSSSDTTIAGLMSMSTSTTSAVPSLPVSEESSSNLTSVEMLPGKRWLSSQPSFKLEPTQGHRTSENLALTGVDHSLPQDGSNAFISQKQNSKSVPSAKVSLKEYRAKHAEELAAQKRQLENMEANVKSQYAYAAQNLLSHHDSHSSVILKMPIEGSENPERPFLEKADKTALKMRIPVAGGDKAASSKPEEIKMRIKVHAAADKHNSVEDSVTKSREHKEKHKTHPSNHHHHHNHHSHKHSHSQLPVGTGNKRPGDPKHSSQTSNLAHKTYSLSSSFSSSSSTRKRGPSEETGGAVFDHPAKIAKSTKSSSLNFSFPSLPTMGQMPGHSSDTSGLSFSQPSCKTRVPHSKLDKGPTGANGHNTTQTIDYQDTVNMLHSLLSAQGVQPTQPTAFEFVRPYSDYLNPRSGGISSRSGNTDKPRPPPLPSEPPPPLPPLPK
Structure (SMILES),% CDK9 inhibition [2],"IC50 [3, 6]","IC50 [3, 7]","IC50 [3, 8]","IC50 [3, 9]","IC50 [3, 10]","IC50 [3, 11]","IC50 [4, 12]",inhibition at 1 µM [2],"IC50 [3, 13]","IC50 [3, 14]","IC50 [3, 15]","IC50 [3, 16]","IC50 [3, 17]","IC50 [3, 18]",% degradation cyclin K-eGFP [1],activity after alteration of the aminothiazole core / bulky replacement [3],Class [3],Ratio shCUL4A/shCTRL [5],other results
CN(C)c1ccc(CC(=O)Nc2nc3ccccc3o2)cc1 [UOM-005604],0%,> 10 µM,> 10 µM,> 10 µM,> 10 µM,> 10 µM,> 10 µM,,,,,,,,,8%,"neither bind to CDKs, nor degrade Cyclin K",inactive,,
CN(C)c1ccc(C(=O)Nc2ncc(SCc3cccnc3)s2)cc1 [UOM-005845],,,,,,,,,,,,,,,,,,,,"IC50 ([4]; OCI-AML-5, 96 h, 4 days incubation, read-out: IC50 OCI-AML5): 1.97 µM; % cyclin KeGFP degradation ([1]; 3 h, 10 μM, compared to DMSO, OCI-AML5 G7 clone): 0%"
C=C(C(=O)Nc1ncc(SCc2cccnc2)s1)c1ccc2c(c1)[nH]c1ccc(Cl)cc12 [UOM-005447],,,,,,,,7.36 µM,73%,5.41 µM,3.21 µM,3.43 µM,3.94 µM,4.09 µM,4.74 µM,63%,,2,0.72,
Cl.Cl.O=C(CC1CCNC1)Nc1ncc(SCc2cccnc2)s1 (stereo not shown) [UOM-005300],,,,,,,,7.07 µM,64%,5.41 µM,3.38 µM,5.42 µM,4.45 µM,2.9 µM,3.01 µM,5%,,2,1.07,
Cc1nc(CC(=O)Nc2ncc(SCc3cccnc3)s2)c(C)s1 [UOM-005227],,,,,,,,5.63 µM,53%,6.24 µM,7.68 µM,6.5 µM,4.79 µM,4.79 µM,5.39 µM,0%,,,1.12,
CSc1ccc(CC(=O)Nc2ncc(SCc3cccnc3)s2)cc1 [UOM-005206],,,,,,,,1.18 µM,67%,0.458 µM,0.867 µM,1.28 µM,1.3 µM,1.33 µM,0.848 µM,76%,,mixed 1-2,1.77,
O=C(Cc1ccccn1)Nc1ncc(SCc2cccnc2)s1 [UOM-005566],,,,,,,,6.56 µM,15%,6.05 µM,3.92 µM,7.03 µM,8.88 µM,7.58 µM,5.48 µM,4%,,2,1.07,
CC(=O)Nc1ncc(SCc2cccnc2)s1 [UOM-005188],1%,> 10 µM,2.97 µM,> 10 µM,> 10 µM,> 10 µM,> 10 µM,,,,,,,,,6%,,2,,
O=C(Cc1ccc(N2CCCCC2)cc1)Nc1ncc(SCc2cccnc2)s1 [UOM-005607],,,,,,,,1.85 µM,90%,0.866 µM,0.792 µM,3.01 µM,2.19 µM,2.05 µM,0.909 µM,30%,,mixed 1-2,0.9,
O=C(Cc1cc(F)ccc1Br)Nc1ncc(SCc2cccnc2)s1 [UOM-005204],,,,,,,,4.48 µM,15%,6.94 µM,3.57 µM,8.34 µM,5.28 µM,8.07 µM,4.1 µM,12%,,2,1.11,

# Second part, led by results:
% CDK9 inhibition [2],"IC50 [3, 6]","IC50 [3, 7]","IC50 [3, 8]","IC50 [3, 9]","IC50 [3, 10]","IC50 [3, 11]","IC50 [4, 12]",inhibition at 1 µM [2],"IC50 [3, 13]","IC50 [3, 14]","IC50 [3, 15]","IC50 [3, 16]","IC50 [3, 17]","IC50 [3, 18]",Structure (SMILES),% degradation cyclin K-eGFP [1],activity after alteration of the aminothiazole core / bulky replacement [3],Class [3],Ratio shCUL4A/shCTRL [5],other results
10%,> 10 µM,> 10 µM,> 10 µM,> 10 µM,> 10 µM,> 10 µM,,,,,,,,,CN(C)c1ccc(CC(=O)Nc2nc3ccccc3s2)cc1 [UOM-005600],29%,"neither bind to CDKs, nor degrade Cyclin K",inactive,,
0%,> 10 µM,> 10 µM,> 10 µM,> 10 µM,> 10 µM,> 10 µM,,,,,,,,,Cc1csc(NC(=O)Cc2ccc(N(C)C)cc2)n1 [UOM-005598],1%,"neither bind to CDKs, nor degrade Cyclin K",inactive,,
,,,,,,,> 10 µM,0%,> 10 µM,> 10 µM,> 10 µM,> 10 µM,> 10 µM,> 10 µM,COC(=O)c1cnc(NC(=O)Cc2ccc(N(C)C)cc2)s1 [UOM-005602],26%,,inactive,,
0%,> 10 µM,> 10 µM,> 10 µM,> 10 µM,> 10 µM,> 10 µM,,,,,,,,,CN(C)c1ccc(CC(=O)Nc2nncs2)cc1 [UOM-005601],1%,loss of binding of the compounds to CDK,inactive,,
,,,,,,,> 10 µM,0%,> 10 µM,> 10 µM,> 10 µM,> 10 µM,> 10 µM,> 10 µM,CN(C)c1ccc(CC(=O)Nc2nc3ccccc3[nH]2)cc1 [UOM-005603],10%,"neither bind to CDKs, nor degrade Cyclin K",inactive,,
,,,,,,,> 10 µM,0%,> 10 µM,> 10 µM,> 10 µM,> 10 µM,> 10 µM,> 10 µM,CN(C)c1ccc(CC(=O)Nc2nc3c(s2)CCC3)cc1 [UOM-005599],13%,"neither bind to CDKs, nor degrade Cyclin K",inactive,,
,,,,,,,> 10 µM,0%,> 10 µM,> 10 µM,> 10 µM,> 10 µM,> 10 µM,> 10 µM,CN(C)c1ccc(CC(=O)Nc2nccs2)cc1 [UOM-005597],4%,,inactive,,
0%,> 10 µM,> 10 µM,> 10 µM,> 10 µM,> 10 µM,> 10 µM,,,,,,,,,Cc1nnc(NC(=O)Cc2ccc(N(C)C)cc2)s1 [UOM-005596],0%,loss of binding of the compounds to CDK,inactive,,
,,,,,,,> 10 µM,0%,> 10 µM,> 10 µM,> 10 µM,> 10 µM,> 10 µM,> 10 µM,CN(C)c1ccc(CC(=O)Nc2nnc(SCc3cccnc3)s2)cc1 [UOM-005628],0%,loss of binding of the compounds to CDK,inactive,,
